Active and inactive are the calls of the source. No cut-off for these calls is given here.
Tests used:
[1] = biological target: Telomerase reverse transcriptase (Homo sapiens, UniProt O14746); assay: Ability to inhibit human telomerase in a modified cell-free TRAP assay using extracts from A2780 cell line
[2] = biological target: DNA polymerase I, thermostable (Thermus aquaticus) (UniProt P19821); assay: Ability to inhibit Taq polymerase in vitro at a concentration of 10 uM; NI means No inhibition
Sequence of DNA polymerase I, thermostable (Thermus aquaticus) (P19821 whole entry): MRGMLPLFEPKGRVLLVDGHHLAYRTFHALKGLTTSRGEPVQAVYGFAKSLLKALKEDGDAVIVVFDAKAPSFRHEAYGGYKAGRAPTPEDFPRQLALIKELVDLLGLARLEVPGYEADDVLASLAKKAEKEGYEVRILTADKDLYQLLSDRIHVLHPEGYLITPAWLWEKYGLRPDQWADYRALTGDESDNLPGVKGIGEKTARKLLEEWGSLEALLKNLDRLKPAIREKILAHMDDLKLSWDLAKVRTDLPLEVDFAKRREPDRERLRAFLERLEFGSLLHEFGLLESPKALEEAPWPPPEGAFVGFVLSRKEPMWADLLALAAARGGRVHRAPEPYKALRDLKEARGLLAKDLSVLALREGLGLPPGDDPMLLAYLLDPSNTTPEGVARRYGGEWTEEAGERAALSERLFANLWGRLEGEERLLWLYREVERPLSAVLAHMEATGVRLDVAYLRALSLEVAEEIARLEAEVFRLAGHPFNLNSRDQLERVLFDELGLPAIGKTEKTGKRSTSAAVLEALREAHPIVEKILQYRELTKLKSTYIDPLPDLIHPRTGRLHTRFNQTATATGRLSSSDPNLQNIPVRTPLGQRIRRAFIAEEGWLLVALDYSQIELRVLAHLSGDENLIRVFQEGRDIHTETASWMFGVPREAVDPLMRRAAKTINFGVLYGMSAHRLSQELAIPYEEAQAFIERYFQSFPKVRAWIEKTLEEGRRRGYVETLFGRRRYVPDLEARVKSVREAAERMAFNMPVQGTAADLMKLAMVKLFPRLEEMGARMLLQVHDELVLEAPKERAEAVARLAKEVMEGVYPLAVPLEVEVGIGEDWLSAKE

A2780 = assay: In vitro cytotoxicity against human ovarian carcinoma cell line A2780 using sulforhodamine B (SRB) assay; type: functional, cell-based
[3] = biological target: DNA polymerase I, thermostable (Thermus aquaticus) (UniProt P19821); assay: Ability to inhibit Taq polymerase in vitro at a concentration of 20 uM; NI means No inhibition
CH1 = assay: In vitro cytotoxicity against human ovarian carcinoma cell line CH1 using sulforhodamine B (SRB) assay; type: functional, cell-based
SK-OV-3 = assay: In vitro cytotoxicity against human ovarian carcinoma cell line SKOV-3 using sulforhodamine B (SRB) assay; type: functional, cell-based
[4] = biological target: DNA polymerase I, thermostable (Thermus aquaticus) (UniProt P19821); assay: Ability to inhibit Taq polymerase in vitro at a concentration of 50 uM; NI means No inhibition

Sequence of Telomerase reverse transcriptase (O14746 whole entry): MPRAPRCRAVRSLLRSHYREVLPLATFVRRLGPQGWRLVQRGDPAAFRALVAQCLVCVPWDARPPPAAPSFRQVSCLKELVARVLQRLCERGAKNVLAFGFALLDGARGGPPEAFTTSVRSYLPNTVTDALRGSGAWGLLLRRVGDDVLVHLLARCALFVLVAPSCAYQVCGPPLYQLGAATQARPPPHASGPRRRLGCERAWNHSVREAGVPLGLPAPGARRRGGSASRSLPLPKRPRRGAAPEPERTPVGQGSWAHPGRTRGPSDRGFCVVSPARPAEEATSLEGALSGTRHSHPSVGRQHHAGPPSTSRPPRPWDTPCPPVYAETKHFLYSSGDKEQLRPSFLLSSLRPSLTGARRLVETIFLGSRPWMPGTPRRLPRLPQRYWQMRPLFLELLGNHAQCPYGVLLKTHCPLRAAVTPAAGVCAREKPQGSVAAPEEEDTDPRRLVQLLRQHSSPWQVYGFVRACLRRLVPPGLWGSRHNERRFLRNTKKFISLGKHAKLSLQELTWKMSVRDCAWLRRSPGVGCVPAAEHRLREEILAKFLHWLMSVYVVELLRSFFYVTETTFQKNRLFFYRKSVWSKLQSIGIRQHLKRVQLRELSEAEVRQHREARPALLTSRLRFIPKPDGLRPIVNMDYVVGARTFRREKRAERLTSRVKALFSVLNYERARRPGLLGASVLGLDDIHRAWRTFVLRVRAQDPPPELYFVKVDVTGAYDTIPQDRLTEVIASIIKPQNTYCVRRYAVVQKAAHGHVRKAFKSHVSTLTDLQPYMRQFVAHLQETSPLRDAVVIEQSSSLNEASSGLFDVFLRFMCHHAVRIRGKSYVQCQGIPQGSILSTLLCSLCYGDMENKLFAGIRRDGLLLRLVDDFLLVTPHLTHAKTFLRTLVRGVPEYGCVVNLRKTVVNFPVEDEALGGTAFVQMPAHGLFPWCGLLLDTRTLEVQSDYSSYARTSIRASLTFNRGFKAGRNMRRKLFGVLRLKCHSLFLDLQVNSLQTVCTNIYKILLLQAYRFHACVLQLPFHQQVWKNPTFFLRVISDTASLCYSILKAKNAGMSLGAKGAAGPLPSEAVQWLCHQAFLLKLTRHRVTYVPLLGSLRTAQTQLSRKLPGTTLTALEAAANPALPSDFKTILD

Row | IC50 [1] [nM] | inhibition [2] | inhibition [3] | inhibition [4] | Compound | IC50 (A2780) [nM] | IC50 (CH1) [nM] | IC50 (SK-OV-3) [nM]
1 | 5400 | inactive | inactive | inactive | O=C(CCN1CCCCC1CO)Nc1ccc2cc3ccc(NC(=O)CCN4CCCCC4CO)cc3nc2c1 (configuration not stated) | 2300 | 10500 | 7000
2 | > 50000 | inactive | inactive | inactive | CC1(C)CC2CC(C)(CN2CCC(=O)Nc2ccc3cc4ccc(NC(=O)CCN5CC6(C)CC5CC(C)(C)C6)cc4nc3c2)C1 | 500 | 540 | 2200
3 | 8000 | inactive | inactive | inactive | O=C(CCN1CCC(O)CC1)Nc1ccc2cc3ccc(NC(=O)CCN4CCC(O)CC4)cc3nc2c1 | 6200 | 15000 | 13000
4 | 3100 | inactive | inactive | inactive | O=C(CCN1CCCCCC1)Nc1ccc2cc3ccc(NC(=O)CCN4CCCCCC4)cc3nc2c1 | 1100 | 1850 | 2500
5 | > 50000 | inactive | inactive | inactive | O=C(CCN1CCOCC1)Nc1ccc2cc3ccc(NC(=O)CCN4CCOCC4)cc3nc2c1 | 3100 | 15000 | 13000
6 | 2600 | inactive | inactive | inactive | CC1CCCCN1CCC(=O)Nc1ccc2cc3ccc(NC(=O)CCN4CCCCC4C)cc3nc2c1 (configuration not stated) | 1750 | 2300 | 3400
7 | 5800 | inactive | inactive | inactive | CCN(CC)CCC(=O)Nc1ccc2cc3ccc(NC(=O)CCN(CC)CC)cc3nc2c1 | 570 | 2450 | 2250
8 | 1350 | inactive | inactive | inactive | CC1CCN(CCC(=O)Nc2ccc3cc4ccc(NC(=O)CCN5CCC(C)CC5)cc4nc3c2)CC1 | 2150 | 2050 | 2400
9 | > 50000 | inactive | inactive | inactive | O=C(CCN1CCC(Cc2ccccc2)CC1)Nc1ccc2cc3ccc(NC(=O)CCN4CCC(Cc5ccccc5)CC4)cc3nc2c1 | 310 | 110 | 880
10 | 8200 | inactive | inactive | inactive | CN(C)CCC(=O)Nc1ccc2cc3ccc(NC(=O)CCN(C)C)cc3nc2c1 | 750 | 9800 | 2500
11 | > 50000 | inactive | inactive | inactive | O=C(CCN1CCCCCCC1)Nc1ccc2cc3ccc(NC(=O)CCN4CCCCCCC4)cc3nc2c1 | 1300 | 2200 | 2300
12 | 4400 | inactive | inactive | inactive | CC1CCCN(CCC(=O)Nc2ccc3cc4ccc(NC(=O)CCN5CCCC(C)C5)cc4nc3c2)C1 (configuration not stated) | 2100 | 2200 | 2850
13 | 2800 | inactive | inactive | inactive | O=C(CCN1CCCCC1)Nc1ccc2cc3ccc(NC(=O)CCN4CCCCC4)cc3nc2c1 | 1700 | 2250 | 540
14 | 4100 | inactive | inactive | inactive | O=C(CCN1CCCCC1CCO)Nc1ccc2cc3ccc(NC(=O)CCN4CCCCC4CCO)cc3nc2c1 (configuration not stated) | 3200 | 11000 | 10500
15 | 2700 | inactive | inactive | inactive | CCC1CCCCN1CCC(=O)Nc1ccc2cc3ccc(NC(=O)CCN4CCCCC4CC)cc3nc2c1 (configuration not stated) | 2200 | 2200 | 3900

Row | Compound | IC50 [1] [nM] | inhibition [2] | inhibition [3] | inhibition [4] | IC50 (A2780) [nM] | IC50 (CH1) [nM] | IC50 (SK-OV-3) [nM]
16 | O=C(CCN1CCCC1)Nc1ccc2cc3ccc(NC(=O)CCN4CCCC4)cc3nc2c1 | 5200 | inactive | inactive | inactive | 2650 | 8200 | 2600

From ChEMBL document CHEMBL1132094, “Human telomerase inhibition by substituted acridine derivatives” (Bioorg Med Chem Lett, 1999)
